In brackets after ≈: the same amount, converted by molar mass.
Tests used:
[1] = Displacement of [125I]neurotensin from neurotensin receptor 1 in guinea pig brain; parameters: species or system Cavia porcellus
[2] = system: Mus musculus; assay: Anticonvulsant activity in mouse at 30 mg/kg; type: functional
[3] = Half life in plasma; type: ADME, cell-free
[4] = target: T1, Mediator of RNA polymerase II transcription subunit 23 (Homo sapiens, UniProt Q9ULK4); assay: Binding affinity to Sur2
T1 sequence (Q9ULK4 whole entry): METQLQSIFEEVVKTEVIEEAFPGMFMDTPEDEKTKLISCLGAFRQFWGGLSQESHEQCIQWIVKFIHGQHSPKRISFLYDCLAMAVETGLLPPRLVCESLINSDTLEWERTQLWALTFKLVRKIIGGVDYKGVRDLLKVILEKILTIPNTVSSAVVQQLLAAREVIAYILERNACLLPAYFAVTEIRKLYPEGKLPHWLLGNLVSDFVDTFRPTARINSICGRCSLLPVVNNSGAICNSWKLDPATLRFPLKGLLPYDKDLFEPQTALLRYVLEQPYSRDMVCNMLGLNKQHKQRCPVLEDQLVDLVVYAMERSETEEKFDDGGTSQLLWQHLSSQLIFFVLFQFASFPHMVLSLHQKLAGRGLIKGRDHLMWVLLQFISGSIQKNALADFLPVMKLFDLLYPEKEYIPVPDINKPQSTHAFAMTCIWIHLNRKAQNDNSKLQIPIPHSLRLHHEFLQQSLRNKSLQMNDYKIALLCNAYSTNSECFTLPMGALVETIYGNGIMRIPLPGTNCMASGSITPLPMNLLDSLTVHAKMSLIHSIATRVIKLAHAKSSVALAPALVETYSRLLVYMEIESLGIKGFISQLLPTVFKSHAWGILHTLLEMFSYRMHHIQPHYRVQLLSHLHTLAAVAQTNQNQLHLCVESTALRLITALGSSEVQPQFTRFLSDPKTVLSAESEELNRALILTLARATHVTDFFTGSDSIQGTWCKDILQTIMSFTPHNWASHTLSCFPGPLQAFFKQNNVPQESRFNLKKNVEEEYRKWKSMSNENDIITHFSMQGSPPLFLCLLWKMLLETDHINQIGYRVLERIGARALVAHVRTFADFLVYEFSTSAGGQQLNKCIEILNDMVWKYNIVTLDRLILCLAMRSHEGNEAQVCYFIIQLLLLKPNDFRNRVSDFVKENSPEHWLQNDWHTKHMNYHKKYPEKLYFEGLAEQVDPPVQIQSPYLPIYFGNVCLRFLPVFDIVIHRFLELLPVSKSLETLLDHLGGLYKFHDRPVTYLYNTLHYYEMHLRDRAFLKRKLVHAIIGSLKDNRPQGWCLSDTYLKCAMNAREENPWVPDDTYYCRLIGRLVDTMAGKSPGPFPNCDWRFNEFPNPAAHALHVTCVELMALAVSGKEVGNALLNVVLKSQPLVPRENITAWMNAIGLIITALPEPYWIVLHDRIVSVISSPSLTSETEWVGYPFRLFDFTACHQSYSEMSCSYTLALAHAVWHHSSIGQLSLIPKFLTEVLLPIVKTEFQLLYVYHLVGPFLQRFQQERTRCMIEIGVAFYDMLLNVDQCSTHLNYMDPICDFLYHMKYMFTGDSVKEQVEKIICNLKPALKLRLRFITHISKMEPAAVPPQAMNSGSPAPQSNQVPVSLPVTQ

[5] = system: Mycobacterium tuberculosis; assay: Antimicrobial activity against Mycobacterium tuberculosis H37Rv; type: functional
[6] = Volume of distribution in mouse; type: ADME, organism-based; details: in vivo
[7] = system: HCT-116; assay: Antitumor activity against human HCT116 cells xenografted in athymic mouse assessed as reduction tumor size at 20 mg/kg, qd; type: functional; parameters: scale not given: the % may be the effect or the level left
[8] = target: Carbonic anhydrase 2 (Homo sapiens, UniProt P00918); assay: Inhibition of human CA2
[9] = Half life in human plasma; type: ADME, cell-free
[10] = Inhibition of Beta-glucocerebrosidase G202R mutant in cell based assay
[11] = system: T2, Lysosomal acid glucosylceramidase (Homo sapiens), P04062 [N409S]; assay: Inhibition of Beta-glucocerebrosidase N370S mutant in cell based assay
T2 sequence (whole entry): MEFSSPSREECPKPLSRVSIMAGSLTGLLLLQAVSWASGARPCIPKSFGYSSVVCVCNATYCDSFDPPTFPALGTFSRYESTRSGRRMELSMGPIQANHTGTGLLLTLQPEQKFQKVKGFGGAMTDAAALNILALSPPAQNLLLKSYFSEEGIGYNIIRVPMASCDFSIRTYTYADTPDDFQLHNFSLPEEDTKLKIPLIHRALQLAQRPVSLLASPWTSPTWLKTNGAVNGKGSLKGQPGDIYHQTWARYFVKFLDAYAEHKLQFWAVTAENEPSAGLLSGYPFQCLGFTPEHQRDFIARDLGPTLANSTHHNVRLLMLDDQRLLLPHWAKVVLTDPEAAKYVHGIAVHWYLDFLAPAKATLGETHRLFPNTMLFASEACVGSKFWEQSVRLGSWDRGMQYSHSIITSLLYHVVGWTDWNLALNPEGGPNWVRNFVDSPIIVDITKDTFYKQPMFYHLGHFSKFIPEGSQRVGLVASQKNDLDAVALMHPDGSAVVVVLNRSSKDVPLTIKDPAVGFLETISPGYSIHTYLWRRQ

[12] = Drug excretion in human urine assessed as unchanged compound level; type: ADME; details: read-out: Drug excretion
[13] = Protein binding in plasma; type: ADME, cell-free; details: read-out: PPB (converted)
[14] = system: Staphylococcus aureus; assay: Antimicrobial activity against methicillin-resistant Staphylococcus aureus; type: functional
[15] = system: Enterococcus faecium; assay: Antimicrobial activity against vancomycin-resistant Enterococcus faecium; type: functional
[16] = Inhibition of globotriaosyl ceramide binding to Escherichia coli Verotoxin 1
[17] = target: Delta-type opioid receptor (Homo sapiens, UniProt P41143); assay: Antagonist activity at DOR; type: functional
[18] = target: Mu-type opioid receptor (Homo sapiens, UniProt P35372); assay: Antagonist activity at MOR; type: functional
[19] = target: T3, Vitamin D3 receptor (Homo sapiens, UniProt P11473); assay: Transactivation of VDR expressed in COS7 cells assessed as reduction in 1,25-dihydroxyvitamin D3-induced transcriptional activity by transient transcription assay; type: cell-based, COS-7
T3 sequence (P11473 whole entry): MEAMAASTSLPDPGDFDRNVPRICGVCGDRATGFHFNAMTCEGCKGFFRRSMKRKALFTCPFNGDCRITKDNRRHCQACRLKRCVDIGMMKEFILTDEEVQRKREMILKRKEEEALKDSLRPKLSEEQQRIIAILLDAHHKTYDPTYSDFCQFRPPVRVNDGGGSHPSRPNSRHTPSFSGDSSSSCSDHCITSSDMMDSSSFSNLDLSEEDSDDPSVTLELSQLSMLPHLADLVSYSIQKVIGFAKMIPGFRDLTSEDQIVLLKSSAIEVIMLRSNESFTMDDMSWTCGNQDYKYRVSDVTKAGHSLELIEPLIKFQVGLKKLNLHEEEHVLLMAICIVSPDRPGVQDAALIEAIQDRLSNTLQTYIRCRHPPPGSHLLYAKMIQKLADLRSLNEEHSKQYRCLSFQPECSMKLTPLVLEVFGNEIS

[20] = Drug elimination in po dosed human assessed as unchanged compound level; type: ADME, organism-based; details: in vivo, read-out: Drug excretion
[21] = Ratio of drug level in liver to blood in human; type: ADME, tissue-based
[22] = Solubility in water; type: physicochemical

Chain of Mu-type opioid receptor (P35372 whole entry): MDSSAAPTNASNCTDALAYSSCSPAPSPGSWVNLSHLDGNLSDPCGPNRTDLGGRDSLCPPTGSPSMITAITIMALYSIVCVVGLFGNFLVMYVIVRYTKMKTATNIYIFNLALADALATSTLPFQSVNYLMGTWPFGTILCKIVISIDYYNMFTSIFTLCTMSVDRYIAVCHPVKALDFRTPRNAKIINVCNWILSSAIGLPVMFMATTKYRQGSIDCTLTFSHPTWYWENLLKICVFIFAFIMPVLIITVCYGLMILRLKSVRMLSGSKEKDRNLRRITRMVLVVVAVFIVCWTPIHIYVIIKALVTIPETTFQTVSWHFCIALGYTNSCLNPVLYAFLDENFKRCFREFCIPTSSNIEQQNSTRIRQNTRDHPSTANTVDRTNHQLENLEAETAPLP
Chain of Delta-type opioid receptor (P41143 whole entry): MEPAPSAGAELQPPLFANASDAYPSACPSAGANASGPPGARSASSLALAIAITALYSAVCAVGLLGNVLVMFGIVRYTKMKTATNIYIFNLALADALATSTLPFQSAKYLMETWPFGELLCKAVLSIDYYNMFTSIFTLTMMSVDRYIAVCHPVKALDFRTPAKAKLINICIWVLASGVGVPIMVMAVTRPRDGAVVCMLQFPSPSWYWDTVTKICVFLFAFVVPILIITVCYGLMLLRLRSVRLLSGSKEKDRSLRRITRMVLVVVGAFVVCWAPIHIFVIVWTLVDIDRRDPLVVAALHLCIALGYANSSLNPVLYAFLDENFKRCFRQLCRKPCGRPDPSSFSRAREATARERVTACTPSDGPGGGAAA

COc1cccc(OC)c1-c1cc(C(=O)NC2(C(=O)O)C3CC4CC(C3)CC2C4)nn1-c1ccnc2cc(Cl)ccc12 (stereo not drawn) [REMINERTANT]
IC50 [1]: 0.99 nM

NS(=O)(=O)c1nnc(NC(=O)CC23CC4CC(CC(C4)C2)C3)s1
Activity [2]: 75%

CC(C)NCC(O)COc1ccc(CC(=O)OCCC23CC4CC(CC(C4)C2)C3)cc1 (stereo not drawn) [ADAPROLOL]
half-life [3]: 6.9 min

Cc1ccc(S(=O)(=O)n2ccc3c(OCC(O)CN(CCCCCN)C(=O)N4CCC(C5CCN(C(=O)C67CC8CC(CC(C8)C6)C7)CC5)CC4)cccc32)cc1 (stereo not drawn) [WRENCHNOLOL]
Kd [4]: 1800 nM

CC(C)=CCC/C(C)=C/CNCCNC1C2CC3CC(C2)CC1C3 (stereo not drawn) [SQ109]
MIC [5]: 1.56 µM (≈ 0.516 µg/mL) | Vd [6]: 11.8 L/kg

COC(=O)c1ccc(O)c(NC(=O)COc2ccc(C34CC5CC(CC(C5)C3)C4)cc2)c1
Activity [7]: 53%

NS(=O)(=O)c1nnc(NC(=O)OC23CC4CC(CC(C4)C2)C3)s1
Ki [8]: 10 nM | Activity [2]: 92%

CC(=O)N(O)CCCCCNC(=O)CCC(=O)N(O)CCCCCNC(=O)CCC(=O)N(O)CCCCCN [DEFEROXAMINE]
half-life [3]: 5 min

CC(N)C12CC3CC(CC(C3)C1)C2 (stereo not drawn) [RIMANTADINE]
half-life [9]: 1440 min

O=C(CCCCCN1C[C@H](O)[C@@H](O)[C@H](O)[C@H]1CO)NC12CC3CC(CC(C3)C1)C2
INH [10]: > 1 µM | INH [11]: > 1 µM

NC12CC3CC(CC(C3)C1)C2 [AMANTADINE]
dose excreted [12]: 65%

N#C[C@@H]1C[C@@H]2C[C@@H]2N1C(=O)[C@@H](N)C12CC3CC(CC(O)(C3)C1)C2 [SAXAGLIPTIN ANHYDROUS]
fraction unbound [13]: 0.7

CC12C[C@@]34C=CC(=O)[C@@](C)(CCC(=O)Nc5c(O)ccc(C(=O)O)c5O)C3[C@H](CC1C4)O2 (stereo partly drawn) [PLATENSIMYCIN]
MIC [14]: 0.2 µg/mL (≈ 0.453 µM) | MIC [15]: 0.2 µg/mL (≈ 0.453 µM)

CCCCCCCCCCCCC/C=C/C(O)C(CO[C@@H]1O[C@H](CO)[C@@H](O[C@@H]2O[C@H](CO)[C@H](O[C@H]3O[C@H](CO)[C@H](O)[C@H](O)[C@H]3O)[C@H](O)[C@H]2O)[C@H](O)[C@H]1O)NC(=O)CC12CC3CC(CC(C3)C1)C2 (stereo partly drawn)
IC50 [16]: 10000 nM

Cc1cc(O)cc(C)c1C[C@H](N)C(=O)N1Cc2ccccc2C[C@H]1C(=O)NC12C[C@H]3C[C@@H](C1)C[C@@H](C2)C3
Ki [17]: 1.24 nM | Ki [18]: 85.5 nM

C=C1[C@H](O)CC(=C/C=C2\CCC[C@]3(C)[C@@H]([C@H](C)/C=C/C[C@H](O)CC45CC6CC(CC(C6)C4)C5)CC[C@@H]23)C[C@H]1O
IC50 [19]: 3 nM

C[C@@]1(CCC(=O)Nc2c(O)ccc(C(=O)O)c2O)C(=O)C=CC23CC4CC(CC(C4)C21)C3 (stereo partly drawn)
MIC [14]: 1.3 µg/mL (≈ 2.96 µM) | MIC [15]: 1.3 µg/mL (≈ 2.96 µM)

CN(C)CCOCC(=O)NC12CC3CC(CC(C3)C1)C2 [TROMANTADINE]
dose excreted [20]: 30% | Kp [21]: 19

NS(=O)(=O)c1nnc(NC(=O)NC23CC4CC(CC(C4)C2)C3)s1
Ki [8]: 13 nM | Activity [2]: 47%

O=C(O)CCCCCCCCCCCNC(=O)NC12CC3CC(CC(C3)C1)C2
solubility [22]: 19 µg/mL (≈ 48.4 µM)

Source: ChEMBL document CHEMBL2169824, “The many faces of the adamantyl group in drug design” (Eur J Med Chem, 2011)
